Like-named read-outs stand apart in the source and are kept apart here.
Tests used:
[1] = test system: IL-6; design: method as in Steuerwald et al. 2013; Mahdy et al. 2002; Kang et al. 2001; settings: ref Steuerwald et al. 2013; Mahdy et al. 2002; Kang et al. 2001; cited from earlier work
[2] = binary classification by human hepatotoxicity; ref Thakkar et al. 2020; cited from earlier work
[3] = test system: IL-6; assay: IL-6 ELISA in HIVIL (iKCs co-cultured with iHeps, LPS, 48 hr); format: cell-based, human; settings: HIVIL; for IC50: Homo sapiens, LPS, 48 hr
Text: (§1) Human iPSC cell line iPS (IMR90)-4 was purchased from WiCell Research Institute (Madison, WI), and maintained with a feeder-free method according to the instruction from […] Technologies (Vancouver, BC, Canada). The protocol of differentiation towards iKCs and iHeps as described previously with slight modification ([Tasnim et al., 2019]; [Cai et al., 2012]), respectively. […] More details are provided in Supplementary Methods. After differentiation, iKCs was harvested using 0.05 % trypsin-EDTA (Gibco, Waltham, Massachusetts, USA), while iHeps were dissociated with TrypLE^TM (Gibco). iHep suspension was further filtered through a 40 µm cell strainer to remove extracellular matrix clumps. Cell suspension was centrifuged at 1000 rpm for 5 min. For co-culture set up, tissue culture plates were coated with Rat tail collagen I (Gibco) diluted 100-fold in 0.02 N acetic acid, and incubated at 37 °C for 1 h and washed 3 times with PBS. According to the protocol optimized by [Tasnim et al. (2019)], iKCs was firstly seeded at a density of 14,000 per well on 96-well plate with Advanced DMEM (plus supplements) containing 5 % FBS. On the following day, iHeps were added at a density of 35,000 per well in Williams’ Medium E (plus supplements) (iHep: iKCs ratio = 2.5: 1). This reflects the physiological ratio of these cells in vivo under inflammatory conditions ([Tasnim et al., 2021]). Fresh media containing drugs was applied to co-cultures the next day. 50,000 cells were seeded to establish iHeps monoculture. THP-1 cells were kindly obtained from Dr. Eliza Fong and cultured as described by [Zeng et al. (2015)]. Details provided in Supplementary Methods.
(§2) Stock solutions of drugs were prepared in dimethyl sulfoxide (DMSO) and dissolved in medium prior to use. […] For these two drugs, the highest DMSO concentration was 1 %. Supernatant was collected at 48 hr for measurement of cytokines, and remaining cells were subjected to viability assay prior to lysis for RNA extraction.
(§3) Enzyme-linked immunosorbent assay (ELISA) for measurement of cytokines: Interleukin-6 (IL-6), interleukin-10 (IL-10) and tumor necrosis factor alpha (TNFα) levels in the media were measured using the corresponding human-based ELISA kits (Abcam, Cambridge, United Kingdom) according to manufacturer’s instructions. The cytokine production from dosed cells was normalized with the viability value from the same well. The normalized cytokine level upon drug treatments was further presented as percentage of DMSO+LPS. […] This normalization approach has been used in previous studies (Rose et al. 2016).

[4] = test system: IL-6; assay: IL-6 response in HIVIL using THP-1 macrophages co-cultured with iHeps; format: cell-based, human; settings: HIVIL with THP-1 instead of iKCs, result in words
Text: Human iPSC cell line iPS (IMR90)-4 was purchased from WiCell Research Institute (Madison, WI), and maintained with a feeder-free method according to the instruction from […] Technologies (Vancouver, BC, Canada). The protocol of differentiation towards iKCs and iHeps as described previously with slight modification ([Tasnim et al., 2019]; [Cai et al., 2012]), respectively. The re-optimized protocol to generate iKCs is discussed in Results section. More details are provided in Supplementary Methods. After differentiation, iKCs was harvested using 0.05 % trypsin-EDTA (Gibco, Waltham, Massachusetts, USA), while iHeps were dissociated with TrypLE^TM (Gibco). iHep suspension was further filtered through a 40 µm cell strainer to remove extracellular matrix clumps. Cell suspension was centrifuged at 1000 rpm for 5 min. For co-culture set up, tissue culture plates were coated with Rat tail collagen I (Gibco) diluted 100-fold in 0.02 N acetic acid, and incubated at 37 °C for 1 h and washed 3 times with PBS. According to the protocol optimized by [Tasnim et al. (2019)], iKCs was firstly seeded at a density of 14,000 per well on 96-well plate with Advanced DMEM (plus supplements) containing 5 % FBS. On the following day, iHeps were added at a density of 35,000 per well in Williams’ Medium E (plus supplements) (iHep: iKCs ratio = 2.5: 1). This reflects the physiological ratio of these cells in vivo under inflammatory conditions ([Tasnim et al., 2021]). Fresh media containing drugs was applied to co-cultures the next day. 50,000 cells were seeded to establish iHeps monoculture. THP-1 cells were kindly obtained from Dr. Eliza Fong and cultured as described by [Zeng et al. (2015)]. Details provided in Supplementary Methods.
THP-1 maintenance and differentiation: THP-1 monocytic lineage was maintained in RPMI 1640 with 10% FBS. For differentiation to macrophages, suspension cells were collected and subjected to 2-day phorbol 12-myristate 13-acetate (PMA) treatment (50 ng/ml), followed by a 1-day PMA-free medium resting. THP-1 macrophages were trypsinzed and used for co-culture as described in Material and methods.
(§4) Enzyme-linked immunosorbent assay (ELISA) for measurement of cytokines: Interleukin-6 (IL-6), interleukin-10 (IL-10) and tumor necrosis factor alpha (TNFα) levels in the media were measured using the corresponding human-based ELISA kits (Abcam, Cambridge, United Kingdom) according to manufacturer’s instructions. The cytokine production from dosed cells was normalized with the viability value from the same well. The normalized cytokine level upon drug treatments was further presented as percentage of DMSO+LPS. Normalization to viability per well ensures that any changes in cytokines are not due to changes in cell numbers upon drug treatment and normalization to DMSO+LPS allows better comparison between different batches of experiments. This normalization approach has been used in previous studies (Rose et al. 2016).

[5] = Cammett et al. 2009, Mendes et al. 2014, cited from earlier work
[6] = test system: IL-6; design: method as in ref Hassan et al. 2016; Giustarini et al. 2019; Higuchi et al. 2012; Dik et al. 2018; settings: ref Hassan et al. 2016; Giustarini et al. 2019; Higuchi et al. 2012; Dik et al. 2018; cited from earlier work
[7] = FDA-labeling information; ref Chen et al. 2016; cited from earlier work
[8] = test system: IL-6; settings: 858.6 μM, 1 μg/mL of LPS; ref Li et al. 2020; cited from earlier work
[9] = test system: cytokines; design: method as in ref Ganey et al. 2004; Honarmand et al. 2012; Manna and Aggarwal 1999; Yao et al. 2004; settings: ref Ganey et al. 2004; Honarmand et al. 2012; Manna and Aggarwal 1999; Yao et al. 2004; cited from earlier work
[10] = test system: HIVIL (iKCs co-cultured with iHeps); assay: AlamarBlue cell viability in HIVIL; settings: Homo sapiens, 48 h, read-out: IC50: viability
Protocol: as §2

[11] = test system: TNFα; assay: TNFα ELISA in HIVIL (iKCs co-cultured with iHeps, LPS, 48 hr); format: cell-based, human; settings: for TNFα induction: result in words
Text: as §1, §2, §3

[12] = test system: TNFα; settings: ref Shaw et al. 2010; Zou et al. 2009; Bekker et al. 2012; Gandhi et al. 2013; Heidari et al. 2019; cited from earlier work
[13] = ref Ho et al. 2015; Kaplowitz 2005; Verma and Kaplowitz 2009; cited from earlier work
[14] = test system: iKCs mono-culture
Protocol: Cell viability assays: Cell viability was examined with AlamarBlue^TM cell viability assay (Thermo Fisher Scientific Inc.) according to manufacturer’s instructions. Briefly, cells were exposed to AlamarBlue^TM working solution, which was diluted 10-fold using PBS containing 2 mg/mL of glucose, for 1 hour. Color change in the solution was measured using fluorescence (Ex: 530nm, Em: 590nm) in Tecan Microplate Reader M1000 PRO. The viability of dosed cells was presented as percentage of the corresponding vehicle control.

[15] = test system: IL-6; assay: IL-6 production of iKC mono-culture; format: cell-based, human; settings: result in words
Protocol: as §4

[16] = test system: IL-6; assay: Optimization of stimulator and duration: IL-6 production; format: cell-based, human
Text: In order to evaluate the time-dependent inflammatory responses, we measured interleukin-6 (IL-6) production within 48 hr post-LPS treatment.

[17] = ref in each cell: Ademisoye et al. 2018, Xu et al. 2008, Agabeyoglu and Incecayir 2009, Rojanasthien et al. 2007, Reunanen et al. 1992, Li et al. 2002, Hong-mei et al. 2013, Bareggi et al. 1987, Jiang et al. 2008

Compound | Reported human responses: IL-6 [1] | DILIst [2] | drug-specific IL-6 response with THP-1 macrophages [4] | Cmax [5, 17] [µM] | group by drug-dependent IL-6 production [3] | DILIrank [7] | further results
CCN(CC)Cc1cc(Nc2ccnc3cc(Cl)ccc23)ccc1O [AQ, amodiaquine] | IL-6↑ (Steuerwald et al. 2013) | 1 | failed to replicate IL-6 increases | 0.1 | – | – | IL-6 induction ([3]; 10 μM): 1.47 fold
NC(=O)N1c2ccccc2C=Cc2ccccc21 [CBZ, carbamazepine] | – | 1 | – | 25.3 | dose-dependent induction | most | increase in IL-6 [3]: 1.7 fold; Reported in-vivo (murine) responses: IL-6 [6]: IL-6↑(Higuchi et al. 2012)
NNC(=O)c1ccncc1 [INH, isoniazid] | IL-6↑ (Steuerwald et al. 2013) | 1 | failed to replicate IL-6 increases | – | – | most | IL-6 induction ([3]; all doses tested): at least 1.2 fold; changes in IL-6 levels [8]: did not show any changes; Reported in-vivo (murine) responses: IL-6 [6]: IL-6↑ (Hassan et al. 2016)
Cc1oncc1C(=O)Nc1ccc(C(F)(F)F)cc1 [LFM, leflunomide] | – | 1 | – | 24.8 | dose-dependent induction | most | increase in IL-6 [3]: 3.1 fold; Reported in-vivo (murine) responses: cytokines [9]: cytokines↓ via NF-kB (Manna and Aggarwal 1999; Yao et al. 2004)
Nc1nnc(-c2cccc(Cl)c2Cl)c(N)n1 [LTG, lamotrigine] | IL-6↑(Steuerwald et al. 2013) | 1 | failed to replicate IL-6 increases | 9.8 | – | most | dose-dependent increase in IL-6 levels over baseline [3]: 1.5- to 2 fold
Cc1ccnc2c1NC(=O)c1cccnc1N2C1CC1 [NVP, nevirapine] | – | 1 | – | – | dose-dependent inhibition | most | IC50 [10]: 2.61 mM; IC50 [3]: 1.07 mM; TNFα induction [11]: all concentrations; Reported in-vivo (murine) responses: TNFα [12]: TNFα↑ (Bekker et al. 2012)
O=C1NC(=O)C(c2ccccc2)(c2ccccc2)N1 [PHT, phenytoin] | IL-6↑ (Steuerwald et al. 2013) | 1 | failed to replicate IL-6 increases | 15.4 | – | most | dose-dependent increase in IL-6 levels over baseline [3]: 1.5- to 2 fold
CCCc1cc(=O)[nH]c(=S)[nH]1 [PTU, propylthiouracil] | – | 1 | – | 17.6 | dose-dependent inhibition | most | IC50 [3]: 0.259 mM; Cmax ([5]; ref in each cell: Xu et al. 2008): 17.6 µM; TNFα induction [11]: all concentrations; Reported in-vivo (murine) responses: TNFα [12]: TNFα↑ (Heidari et al. 2019)
NC(=O)c1cnccn1 [PZA, pyrazinamide] | – | 1 | – | 407 | no dose-dependent changes | less | Known immune-mediated effects [13]: ×
CC1=C(CC(=O)O)c2cc(F)ccc2/C1=C\c1ccc([S+](C)[O-])cc1 (stereo not drawn) [SLD, sulindac] | mechanistic IL-6↓ (Kang et al. 2001) | 1 | – | – | dose-dependent inhibition | most | IC50 [10]: 2.06 mM; reduction of IL-6 [3]: 50%; IC50 [3]: 0.381 mM; toxicity to iKCs mono-culture compared to iHeps mono-culture and HIVIL [14]: substantially higher toxicity; dose at which TNFα induction was observed [11]: < 200 µM; Reported in-vivo (murine) responses: TNFα [12]: TNFα↑ (Zou et al. 2009); IL-6 / cytokine production in iKC mono-culture [15]: abolished
CN(C/C=C/C#CC(C)(C)C)Cc1cccc2ccccc12 [TBF, terbinafine] | – | 1 | – | 3.4 | no dose-dependent changes | most | Known immune-mediated effects [13]: ×
lipopolysaccharide [LPS] | – | – | – | – | – | – | IL-6 production compared to vehicle control ([16]; 24 hr post-LPS treatment): 10.15 fold; IL-6 production compared to vehicle control ([16]; 48 hr post-LPS treatment): 4.70 fold
penicillin | – | 1 | – | – | no dose-dependent changes | less | Known immune-mediated effects [13]: ×

Reference: PMC13289212, “HIVIL: A human in vitro inflammatory liver model recapitulates immune-associated drug effects with high predictivity” (NAM journal, 2025)
